Test results taken from patent publication US12139520B2 (priority 2020, dated 2024).
Numbered stars: 1 amine (or outer) side, 2 acyl side, 3 side chain; on linkers, the order of the positions; unused ones are H or OH. Bridge positions count the residues as written; N and C are the ends. Square brackets hold non-standard residues; d marks the D form. Side chains are listed from the residue outwards. Peptide text beside a SMILES is read from it. * marks the point of attachment. C20 diacid = O=C(O)CCCCCCCCCCCCCCCCCCC(=O)*; γGlu = O=C(O)[C@H](CCC(=O)[*:2])N[*:1]; Hyp = O=C(O)[C@@H]1C[C@@H](O)CN1; AEEA = NCCOCCOCC(=O)O

Columns and labels:
hAMY3 receptor = molecular target: T1, hAMY3 receptor (Homo sapiens, UniProt O60896+P30988); assay: cAMP assay for in vitro receptor activation, hAMY3-R; type: cell-based; conditions: cAMP assay, hAMY3 receptor; read-out: hAMY3R EC50
T1 sequence (P30988 25-474): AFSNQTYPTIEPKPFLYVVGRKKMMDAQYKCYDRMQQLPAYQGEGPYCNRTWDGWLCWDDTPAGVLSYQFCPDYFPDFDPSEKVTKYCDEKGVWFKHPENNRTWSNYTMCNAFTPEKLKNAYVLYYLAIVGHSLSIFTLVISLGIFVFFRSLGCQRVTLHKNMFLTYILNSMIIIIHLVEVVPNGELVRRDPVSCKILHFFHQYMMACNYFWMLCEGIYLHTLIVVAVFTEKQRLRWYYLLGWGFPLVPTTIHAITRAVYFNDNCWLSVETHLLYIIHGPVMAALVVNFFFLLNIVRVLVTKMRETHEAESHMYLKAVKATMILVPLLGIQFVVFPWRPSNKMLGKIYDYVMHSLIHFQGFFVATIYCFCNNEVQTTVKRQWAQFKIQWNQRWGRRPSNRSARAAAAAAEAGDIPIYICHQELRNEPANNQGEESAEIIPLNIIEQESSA
T1 sequence (O60896 24-148 partner): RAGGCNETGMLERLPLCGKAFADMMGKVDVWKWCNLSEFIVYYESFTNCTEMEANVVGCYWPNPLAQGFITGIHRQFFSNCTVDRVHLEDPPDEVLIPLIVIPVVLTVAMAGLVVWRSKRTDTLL
Outline: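 Receptor activation was measured as cAMP accumulation in a monoclonal cell line stably overexpressing hAMY3. Stimulation with graded doses lasted 30 min at room temperature in the presence of 0.5 mM IBMX, with human amylin as positive control.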

hAM1 receptor = hAM1 receptor (Homo sapiens, UniProt O60895+Q16602); assay: cAMP assay for in vitro receptor activation, hAM1-R; type: cell-based; conditions: cAMP assay, hAM1 receptor; read-out: hAM1R EC50
Chain of hAM1 receptor (Q16602 23-461): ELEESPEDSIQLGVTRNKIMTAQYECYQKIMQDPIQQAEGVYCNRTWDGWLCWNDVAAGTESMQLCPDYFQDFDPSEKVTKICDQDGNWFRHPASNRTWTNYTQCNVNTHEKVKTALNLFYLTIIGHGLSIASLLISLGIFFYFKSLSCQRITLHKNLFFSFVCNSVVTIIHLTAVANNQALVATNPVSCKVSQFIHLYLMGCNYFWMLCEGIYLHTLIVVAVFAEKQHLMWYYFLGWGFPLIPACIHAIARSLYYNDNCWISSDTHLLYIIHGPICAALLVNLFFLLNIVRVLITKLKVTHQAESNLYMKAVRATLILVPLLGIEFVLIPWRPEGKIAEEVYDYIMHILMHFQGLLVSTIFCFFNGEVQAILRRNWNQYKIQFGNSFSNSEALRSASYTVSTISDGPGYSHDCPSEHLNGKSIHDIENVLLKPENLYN
Chain of hAM1 receptor (O60895 43-175 partner): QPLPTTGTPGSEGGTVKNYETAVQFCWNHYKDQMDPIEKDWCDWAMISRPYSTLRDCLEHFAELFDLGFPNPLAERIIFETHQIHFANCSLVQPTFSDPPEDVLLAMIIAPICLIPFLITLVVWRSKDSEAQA
Outline: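 cAMP accumulation was measured in a monoclonal cell line stably overexpressing the hAM1 receptor. Frozen aliquots were thawed and plated at 8000 cells/well in DPBS containing 0.05% casein and 0.5 mM IBMX.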

[1] = Acute food intake study in lean rats; type: in vivo, rat; conditions: single SC injection, lean healthy rats; for Average cumulative food intake: up to 48 h, P < 0.001 vs vehicle
Experimental: General Protocols for Acute Food Intake Study
The effect on cumulative food intake was measured in male Sprague Dawley rats (6 weeks of age, Taconic, Denmark) following a single dose using a fully automated food intake monitoring system (HM-2; MBRose ApS, Faaborg, Denmark), allowing for advanced synchronous real-time monitoring of food intake behaviour of individual animals. The animals were housed in groups of 4 in a light-, temperature-, and humidity-controlled room (a 12/12 LD cycle, lights on at 02:00 AM; 22±2° C.; 50% relative humidity). The mice had ad libitum access to regular chow diet (Altromin 1324, Brogaarden A/S, Lynge, Denmark) and domestic quality tap water. Mice arrived at day 7, and a minimum of 5 days of habituation to the system was allowed prior to beginning of the study. During these days, the animals were handled daily to accustom them to the experimental paradigm. On the day of dosing, the animals were randomized into groups according to body weight. Animals were fasted for four hours prior to dosing. Animals were dosed SC 30 or 180 min prior to lights out, and food intake data were collected automatically for a total of 48 h post-dosing with automatic food recordings every 5 min.

SMILES	EC50 (hAMY3 receptor) [nM]	EC50 (hAM1 receptor) [nM]	cumulative food intake, % to vehicle ([1]; 10 nmol/kg) [%]	Average cumulative food intake ([1]; 10 nmol/kg) [g]	cumulative food intake, % to vehicle ([1]; 30 nmol/kg) [%]	Average cumulative food intake ([1]; 30 nmol/kg) [g]
CC[C@H](C)[C@H](NC(=O)[C@H](CCC(N)=O)NC(=O)[C@H](CCC(=O)O)NC(=O)[C@H](C)NC(=O)[C@H](CC(C)C)NC(=O)[C@H](CCCNC(=N)N)NC(=O)[C@H](CCC(N)=O)NC(=O)[C@@H](NC(=O)[C@@H](NC(=O)[C@@H]1CSSC[C@H](NC(=O)[C@@H](N)CCCCN)C(=O)N[C@@H](CCCCNC(=O)COCCOCCNC(=O)COCCOCCNC(=O)CC[C@H](NC(=O)CCCCCCCCCCCCCCCCCCC(=O)O)C(=O)O)C(=O)N[C@@H]([C@@H](C)O)C(=O)N[C@@H](C)C(=O)N[C@@H]([C@@H](C)O)C(=O)N1)[C@@H](C)O)C(C)C)C(=O)N[C@@H](Cc1ccc(O)cc1)C(=O)N[C@@H](CCC(N)=O)C(=O)N[C@@H](Cc1ccccc1)C(=O)N[C@H](C(=O)N[C@@H](CC(=O)O)C(=O)N[C@@H](CCCCN)C(=O)N[C@@H](CC(=O)O)C(=O)N[C@@H](CCCCN)C(=O)N[C@@H](CC(=O)O)C(=O)N[C@@H](CC(N)=O)C(=O)N[C@H](C(=O)N[C@@H](C)C(=O)N1CCC[C@H]1C(=O)N1CCC[C@H]1C(=O)N[C@H](C(=O)N[C@@H](CC(N)=O)C(=O)N[C@H](C(=O)NCC(=O)N[C@@H](CO)C(=O)N[C@@H](CC(N)=O)C(=O)NCC(=O)N1C[C@H](O)C[C@H]1C(N)=O)C(C)C)[C@@H](C)O)C(C)C)[C@@H](C)O [compound 36] (H-KCK([AEEA-AEEA-γGlu-C20 diacid])TATCTVQRLAEQIYQFTDKDKDNVAPPTNVGSNG[Hyp]-NH2; disulfide 2-7; N-terminus assumed)	0.009	> 5000	55.61	23.3		
CC[C@H](C)[C@H](NC(=O)[C@H](CCC(N)=O)NC(=O)[C@H](Cc1c[nH]cn1)NC(=O)[C@H](C)NC(=O)[C@H](CC(C)C)NC(=O)[C@H](CCCNC(=N)N)NC(=O)[C@H](CC(=O)O)NC(=O)[C@@H](NC(=O)[C@@H](NC(=O)[C@@H]1CSSC[C@H](NC(=O)[C@H](CCCCN)NC(=O)CC[C@H](NC(=O)CCCCCCCCCCCCCCCCCCC(=O)O)C(=O)O)C(=O)N[C@@H](CC(N)=O)C(=O)N[C@@H]([C@@H](C)O)C(=O)N[C@@H](C)C(=O)N[C@@H]([C@@H](C)O)C(=O)N1)[C@@H](C)O)C(C)C)C(=O)N[C@@H](Cc1ccc(O)cc1)C(=O)N[C@@H](CCC(N)=O)C(=O)N[C@@H](Cc1ccccc1)C(=O)N[C@H](C(=O)N[C@@H](CC(=O)O)C(=O)N[C@@H](CCCCN)C(=O)N[C@@H](CC(=O)O)C(=O)N[C@@H](CCCCN)C(=O)N[C@@H](CC(=O)O)C(=O)N[C@@H](CC(N)=O)C(=O)N[C@H](C(=O)N[C@@H](C)C(=O)N1CCC[C@H]1C(=O)N1CCC[C@H]1C(=O)N[C@H](C(=O)N[C@@H](CC(N)=O)C(=O)N[C@H](C(=O)NCC(=O)N[C@@H](CO)C(=O)N[C@@H](CC(N)=O)C(=O)NCC(=O)N1C[C@H](O)C[C@H]1C(N)=O)C(C)C)[C@@H](C)O)C(C)C)[C@@H](C)O [compound 4] ({C20 diacid-γGlu}-KCNTATCTVDRLAHQIYQFTDKDKDNVAPPTNVGSNG[Hyp]-NH2; disulfide 2-7)	0.006	> 5000	59.23	26.3	30.86	13.7
